Consider 12 compounds from patent US20260159520A1, “HETEROBIFUNCTIONAL COMPOUNDS AND METHODS OF TREATING DISEASE” (Halda Therapeutics OpCo, Inc., priority 2022, published 2026).

In general, GI50 refers to the concentration that inhibits growth by half.

Holding throughout (type): cell-based
Test [1] deals with T-Rex 293 cell line SC3 cells having increased expression of androgen receptor protein. As to the kind of experiment: Cellular growth inhibition, T-Rex 293 SC3 cells with doxycycline (increased androgen receptor expression). Particulars: with 10 ng/mL doxycycline (increased androgen receptor), 72 hours, CellTiter-Glo 2.0. As to the method: (§1) The following types of cells were prepared for this experiment: (i) a T-Rex 293 cell line having increased expression of androgen receptor protein due to exposure to doxycycline and (ii) a T-Rex 293 cell line lacking increased expression of androgen receptor protein. Ability of the test compounds to inhibit proliferation of the foregoing cell types was evaluated according to the procedures set forth below.
(§2) The doxycycline-inducible androgen receptor protein expressing cell line was established using the following protocol: T-Rex 293 cells were purchased from Invitrogen (Cat #R71007) and transfected using Lipofectamine 2000 with the wild-type androgen receptor protein sequence cloned into the pcDNA4/TO vector. Transfected cells were selected using 400 μg/mL Zeocin (Invitrogen Cat #R25001). Following selection, single clones were raised and maintained in Dulbecco's Modified Eagle Medium (DMEM) supplemented with 10% w/w Tetracycline-free fetal bovine serum (FBS) and 250 μg/mL Zeocin. Clones were analyzed for expression of androgen receptor protein in the presence and absence of 10 ng/mL doxycycline (Sigma Cat #D9891), and a single doxycycline-inducible clone (hereinafter “SC3”) was selected for use in downstream assays.
(§3) The SC3 cells were seeded on poly-D-lysine coated, black clear-bottom 384-well plates at 2500/well, in 25 μL Phenol Red Free Dulbecco's Modified Eagle Medium (DMEM) supplemented with 10% w/w charcoal-dextran treated fetal bovine serum (FBS) and 1% w/w pen-strep, with or without 10 ng/mL doxycycline. Pen-Strep is a commercially available mixture of penicillin G and streptomycin, which is used in mammalian cell culture media to prevent bacterial contamination. Phenol Red Free Dulbecco's Modified Eagle Medium (DMEM) supplemented with 10% w/w charcoal-dextran treated fetal bovine serum (FBS) and 1% w/w pen-strep, with or without 10 ng/mL doxycycline is herein referred to as Treatment Medium. Following seeding of cells in the plates, the plates were spun at 300×g for 30 seconds, then equilibrated to room temperature for 30 minutes, and then deposited in a humidified tissue culture incubator maintained at 37° C. with 5% CO2.
(§4) At 24 hours after seeding of the cells, dilutions of test compound were prepared in DMSO and dissolved in Treatment Medium, to achieve a final DMSO concentration of 0.5% w/w, thereby providing the Test Compound Solution. A 25 μL aliquot of the Test Compound Solution was added to cells in the well plates. An equal volume of a solution containing DMSO and Treatment Medium was used as a negative control. Following treatment of cells with Test Compound Solution or said equal volume of a solution containing DMSO and Treatment Medium, the plates were spun at 300×g for 30 seconds, and then left in an incubator for 72 hours.
(§5) At the end of the treatment duration, cell viability was quantified with CellTiter-Glo 2.0 reagent (Promega Cat #G9243). For this purpose, plates were equilibrated to room temperature for 30 minutes, and then 25 μL of CellTiter-Glo 2.0 reagent was added to cells in the plate wells. Plates were then agitated on a shaker for two minutes at 500 rpm and subsequently incubated at room temperature for 10 minutes. Following incubation, the plates were spun at 3000×g for 30 seconds, then sealed with an optical adhesive cover, and luminescence readings were measured with an EnVision Plate Reader.
(§6) Data was normalized using zero luminescence for baseline. A four-parameter non-linear regression curve fit was applied to dose-response data in GraphPad Prism data analysis software to determine the half-maximal growth inhibitory concentration (GI50) for each test compound.
In general terms: In ATP-based viability assays light output follows the ATP content of the culture.

Test [2] deals with T-Rex 293 cell line SC3 cells lacking increased expression of androgen receptor protein. Briefly: Cellular growth inhibition, T-Rex 293 SC3 cells without doxycycline. Particulars: not exposed to doxycycline, 72 hours, CellTiter-Glo 2.0. How it is done:
as §1, §2, §3, §4, §5, §6

The next test deals with T47D cells. As to the kind of experiment: Cellular growth inhibition assay for T47D cells. Particulars: Homo sapiens, 72 hours, CellTiter-Glo 2.0. How it is done:
(§7) T47D cells were purchased from American Type Cell Culture (ATCC Cat #HTB-133) and then seeded on poly-D-lysine coated, black clear-bottom 384-well plates at 3000/well in 25 μL Dulbecco's Modified Eagle Medium (DMEM) supplemented with 10% w/w Fetal bovine serum (FBS), 0.2 units/mL recombinant human insulin (Gibco Cat #12585014), and 1% w/w Pen-Strep. Pen-Strep is a commercially available mixture of penicillin G and streptomycin, which is used in mammalian cell culture media to prevent bacterial contamination. Dulbecco's Modified Eagle Medium (DMEM) supplemented with 10% w/w fetal bovine serum (FBS), 0.2 units/mL recombinant human insulin, and 1% w/w Pen-Strep is herein referred to as Treatment Medium. Following seeding of cells in the plates, the plates were spun at 300×g for 30 seconds, then equilibrated to room temperature for 30 minutes, and then deposited in a humidified tissue culture incubator maintained at 37° C. with 5% CO2.
as §4
as §5, with “Reader (Perkin Elmer).” for “Reader.”
as §6

For a further test, the system named is VCaP cells. As to the kind of experiment: Cellular growth inhibition assay for VCaP cells. Particulars: Homo sapiens, 72 hours, CellTiter-Glo 2.0. How it is done:
as §7, with “VCaP” for “T47D”, “#CRL2876)” for “#HTB-133)”, “5000/well” for “3000/well”, “(FBS)” for “(FBS), 0.2 units/mL recombinant human insulin (Gibco Cat #12585014),”, “(FBS)” for “(FBS), 0.2 units/mL recombinant human insulin,”
as §4
as §5, with “Reader. Data was normalized using zero luminescence for baseline.” for “Reader.”
A four-parameter non-linear regression curve fit was applied to dose-response data in GraphPad Prism data analysis software to determine the half-maximal growth inhibitory concentration (GI50) for each test compound.

On to `CN(CCNS(=O)(=O)c1ccc(Nc2ncc(Br)c(Nc3cccc(F)c3C(N)=O)n2)cc1)c1ncc(C(=O)N[C@H]2C(C)(C)[C@H](Oc3ccc(C#N)c(Cl)c3)C2(C)C)cn1` [Compound I-18, 2-((2-((4-((5-bromo-4-((2-carbamoyl-3-fluorophenyl)amino)pyrimidin-2-yl)amino)phenyl)sulfonamido)ethyl)(methyl)amino)-N-((1r,3r)-3-(3-chloro-4-cyanophenoxy)-2,2,4,4-tetramethylcyclobutyl)pyrimidine-5-carboxamide], for which the figures for the GI50 (in test [1]; in test [2]; in the test on T47D cells) were 100 to 1000 nM, 100 to 1000 nM and less than 500 nM, respectively.
As for `CN(CCOCCOCCNS(=O)(=O)c1ccc(Nc2ncc(Br)c(Nc3cccc(F)c3C(N)=O)n2)cc1)c1ncc(C(=O)N[C@H]2C(C)(C)[C@H](Oc3ccc(C#N)c(Cl)c3)C2(C)C)cn1` [Compound I-19], the values for the GI50 (in test [1]; in test [2]; with T47D cells) were greater than 3500 nM, greater than 3500 nM and less than 500 nM, respectively.
With `CCc1cnn2c(NCc3ccc(OCCN4CCN(CC5CCN(c6ncc(C(=O)N[C@H]7C(C)(C)[C@H](Oc8ccc(C#N)c(Cl)c8)C7(C)C)cn6)CC5)CC4)nc3)cc(N3CCCCC3)nc12` [Compound I-48], the GI50 in test [1] is 100 to 1000 nM; in test [2], greater than 3500 nM; in the test on VCaP cells it was greater than 3500 nM; in the test on T47D cells, 1500 to 3000 nM.
In the case of `CCc1cnn2c(NCc3ccc(OCCCN4CCN(CC5CCN(c6ncc(C(=O)N[C@H]7C(C)(C)[C@H](Oc8ccc(C#N)c(Cl)c8)C7(C)C)cn6)CC5)CC4)nc3)cc(-c3ccccc3)nc12` [Compound I-49], the GI50 is 100 to 1000 nM in test [1], greater than 3500 nM in test [2], greater than 3500 nM in the test on VCaP cells and 1500 to 3000 nM in the test on T47D cells.
`CCc1cnn2c(NCc3ccc(OCCCN4CCN(CC5CCN(c6ncc(C(=O)N[C@H]7C(C)(C)[C@H](Oc8ccc(C#N)c(Cl)c8)C7(C)C)cn6)CC5)CC4)nc3)cc(N3CCCCC3)nc12` [Compound I-50, N-((1 r,3r)-3-(3-chloro-4-cyanophenoxy)-2,2,4,4-tetramethylcyclobutyl)-2-(4-((4-(3-((5-(((3-ethyl-5-(piperidin-1-yl)pyrazolo[1,5-a]pyrimidin-7-yl)amino)methyl)pyridin-2-yl)oxy)propyl)piperazin-1-yl)methyl)piperidin-1-yl)pyrimidine-5-carboxamide]: the GI50 in test [1] is 100 to 1000 nM; in test [2], greater than 3500 nM; in the test on VCaP cells, greater than 3500 nM; in the test on T47D cells, greater than 3000 nM.
As to `CCc1cnn2c(NCc3ccc(OCCC4CCN(CC5CCN(c6ncc(C(=O)N[C@H]7C(C)(C)[C@H](Oc8ccc(C#N)c(Cl)c8)C7(C)C)cn6)CC5)CC4)nc3)cc(N3CCCC[C@H]3CCO)nc12` [Compound I-52], the GI50 in test [1] is less than 100 nM; in test [2], 100 to 1000 nM; with VCaP cells, less than 100 nM; in the test on T47D cells, less than 500 nM.
Turning to `CCc1cnn2c(NCc3ccc(N4CC(N5CCC(N6CCN(c7ncc(C(=O)N[C@H]8C(C)(C)[C@H](Oc9ccc(C#N)c(Cl)c9)C8(C)C)cn7)CC6)CC5)C4)nc3)cc(N3CCCC[C@H]3CCO)nc12` [Compound I-64], the GI50 in test [1] is less than 100 nM; in test [2], less than 100 nM; in the test with VCaP cells, less than 100 nM; with T47D cells, less than 500 nM.
Take `CCc1cnn2c(NCc3ccc(N4CC(N5CCN(C6CCN(c7ncc(C(=O)N[C@H]8C(C)(C)[C@H](Oc9ccc(C#N)c(Cl)c9)C8(C)C)cn7)CC6)CC5)C4)nc3)cc(N3CCCC[C@H]3CCO)nc12` [Compound I-65]: the 50% growth inhibitory concentration (GI50) in test [1] is less than 100 nM; in test [2] it was less than 100 nM; with VCaP cells, less than 100 nM; in the test on T47D cells, less than 500 nM.
In the case of `CCc1cnn2c(NCc3ccc(N4CC(N5CCC(C6CCN(c7ncc(C(=O)N[C@H]8C(C)(C)[C@H](Oc9ccc(C#N)c(Cl)c9)C8(C)C)cn7)CC6)CC5)C4)nc3)cc(N3CCCC[C@H]3CCO)nc12` [Compound I-66], the GI50 in test [1] was less than 100 nM; in test [2] it was greater than 3500 nM; in the test with VCaP cells, 100 to 1000 nM; in the test with T47D cells it was 1500 to 3000 nM.
For `COc1cc(F)ccc1-c1ccnc2[nH]c(C3CCN(CCOCCOCCOC4CCN(c5ncc(C(=O)N[C@H]6C(C)(C)[C@H](Oc7ccc(C#N)c(Cl)c7)C6(C)C)cn5)CC4)CC3)cc12` [Compound I-67, N-[3-(3-chloro-4-cyano-phenoxy)-2,2,4,4-tetramethyl-cyclobutyl]-2-[4-[2-[2-[2-[4-[4-(4-fluoro-2-methoxy-phenyl)-1H-pyrrolo[2,3-b]pyridin-2-yl]-1-piperidyl]ethoxy]ethoxy]ethoxy]-1-piperidyl]pyrimidine-5-carboxamide] the same measures were 100 to 1000 nM, 1000 to 3500 nM, greater than 3500 nM and 1500 to 3000 nM.
The corresponding values for `CC(C)n1cc(-c2ccnc3[nH]c(C4CCN(CCOCCOCCOC5CCN(c6ncc(C(=O)N[C@H]7C(C)(C)[C@H](Oc8ccc(C#N)c(Cl)c8)C7(C)C)cn6)CC5)CC4)cc23)ccc1=O` [Compound I-77] are 100 to 1000 nM, 100 to 1000 nM, 100 to 1000 nM and 500 to 1500 nM.
In turn, `CCc1cnn2c(NCc3ccc(N(C)CCCN4CCN(C5CN(c6ncc(C(=O)N[C@H]7C(C)(C)[C@H](Oc8ccc(C#N)c(Cl)c8)C7(C)C)cn6)C5)CC4)nc3)cc(N3CCCC[C@H]3CCO)nc12` [Compound I-81] registered a GI50 in the test on T47D cells of less than 500 nM.
